{
  "source": "patent US20260374818A1",
  "about": "“CATIONIC PEPTIDES WITH BROAD SPECTRUM ACTIVITY” (priority 2023, published 2026)",
  "key": {"[1]": {"test_system": "MRSA biofilms (USA300 LAC)", "conditions": "SPOT peptides"}, "[2]": {"test_system": "P. aeruginosa PAO1 biofilms", "test": "Biofilm inhibition by SPOT-synthesized AB103-D variants (crystal violet), P. aeruginosa", "format": "cell-based, Pseudomonas aeruginosa", "conditions": "P. aeruginosa PAO1, SPOT peptides"}, "[3]": {"test_system": "MRSA USA300 biofilms", "test": "Biofilm inhibition by >95% pure peptides (crystal violet), MRSA", "format": "cell-based, methicillin resistant Staphylococcus aureus", "conditions": "MRSA USA300 biofilms, >95% pure peptides, 10% TSB + 0.1% glucose"}, "[4]": {"test": "Peptide aggregation in RPMI + 10% FBS with PBMCs (microscopy)", "format": "physicochemical", "conditions": "overnight", "experimental": "Peptide Aggregation: Peptide aggregation was assessed qualitatively by examining samples of peptides mixed with PBMCs following overnight incubation at 37 °C and 5% CO2. All samples were prepared in RPMI media containing 10% FBS the same manner as the cytotoxicity assays described above. Visualization of aggregates was done using a Nikon Eclipse TS100 Inverted Microscope at 10× magnification.\nIn aggregation studies, peptides were added to PBMCs in RPMI media containing 10% FBS and incubated overnight at 37 °C in 5% CO2.\nThe peptides were also evaluated for their tendency to aggregate when added to RPMI tissue culture media containing 10% fetal bovine serum in the presence of PBMCs. Peptides were added to PBMCs in RPMI media containing 10% FBS and incubated overnight at 37 °C in 5% CO2. […] Compared to a highly aggregation prone peptide, 1018 [Haney, E. F., et al. (2017). Aggregation and its influence on the immunomodulatory activity of synthetic innate defense regulator peptides.\nAs with the DJK-5 derivatives above, the AB103-D derivatives were evaluated for their tendency to aggregate when added to RPMI tissue culture media containing 10% fetal bovine serum in the presence of PBMCs. Peptides were added to PBMCs in RPMI media containing 10% FBS and incubated overnight at 37 °C in 5% CO2."}, "[5]": {"test": "Subdermal murine toxicity model", "conditions": "1 hour after subcutaneous administration; comparator DJK-5", "experimental": "FIGS. 14A-14B show murine subdermal toxicity assessment of AB103-D derived peptides. Clinical scores were recorded for each peptide treated mouse one hour after peptide administration (FIG. 14A). […] The presence of a cyst or lesion was recorded 16 hours after peptide administration and the size of the cyst was measured using calipers (FIG. 14B). Data shown are the mean of two independent replicates at a peptide dose of 4 mg/kg.\nSubdermal murine toxicity model: A subdermal toxicity mouse model was used to evaluate whether peptides induced localized toxicity of treated cutaneous tissue. Mice were anesthetized with 2.5-3% isoflurane and their fur was removed by shaving followed by application of a chemical depilatory. […] Mice were visually assessed and received clinical scores for a battery of signs or symptoms (activity/behaviour change, appearance/grooming, hydration, pain, cyst formation), for which a score of zero was given to animals that appeared normal. Animals were weighed and clinical scores were totalled. Following an overnight (16 h) incubation, mice were scored and weighed then euthanized with CO2 followed by cervical dislocation. Mice were imaged and cysts (swollen, inflamed tissue) were measured using a caliper. Animal experiments were performed in accordance with the Canadian Council on Animal Care (CCAC) guidelines and were approved by the University of British Columbia Animal Care Committee. Female CD-1 mice were purchased from Charles River Laboratories, Inc. (Wilmington, MA). All mice were 8 weeks of age and weighed 25±5 g at the time of the experiment. Animals were group housed in cohorts of three to four littermates. Standard animal husbandry practices were employed."}, "[6]": {"test_system": "P. aeruginosa PAO1 biofilms", "conditions": "P. aeruginosa PAO1 biofilms; >95% pure peptides; crystal violet; BM2 minimal media"}, "[7]": {"test_system": "red blood cells", "test": "Hemolysis", "format": "cell-based, human", "conditions": "4 hours", "experimental": "Hemolysis: Peptide induced hemolysis was evaluated according to methods described previously [Hilchie, A. L., et al. (2016). Mastoparan is a membranolytic anti-cancer peptide that works synergistically with gemcitabine in a mouse model of mammary carcinoma. Biochimica Et Biophysica Acta, 1858(12), 3195-3204]. Briefly, red blood cells were obtained, with human ethics approval, from the blood of healthy volunteers collected in a sodium heparin tube and then rinsed three times in PBS, centrifuging between washes, to obtain the hematocrit (100% RBC). A 2.5% RBCs suspension was exposed to peptide at varying concentrations and incubated at 37 C in a 5% CO2 humidified atmosphere for 4 hours. Supernatants were collected following centrifugation (1100 rpm) and transferred to a flat bottom microtitre plate. The absorbance (490 nm) of each supernatant was measured on a BioTek Epoch Microplate Spectrophotometer. Percent hemolysis was calculated by comparing the absorbance arising from peptide treated cells to RBCs treated with […] (0% hemolysis) or lysed with 1% Triton X-100 (100% hemolysis)."}, "[8]": {"test_system": "3-day-old oral plaque (multispecies) biofilms", "test": "Oral plaque biofilm model, long-term (1-3 days) exposure, dead cell volume", "format": "cell-based", "conditions": "10 μg/mL, 1 or 3 days (FIG. 10)"}, "[9]": {"test_system": "3-day-old oral plaque biofilms", "test": "Oral plaque biofilm model, brief (1 minute) exposure, dead cell volume", "format": "cell-based", "conditions": "10 μg/mL, 1 minute (FIG. 11)"}, "[10]": {"test_system": "peripheral blood mononuclear cells (PBMCs)", "test": "Cytotoxicity (LDH release), PBMCs"}, "[11]": {"test_system": "Enterococcus faecium #2-1", "test": "Biofilm inhibition (at least 80%), E. faecium", "format": "cell-based", "conditions": "E. faecium #2-1; n = 3; TSB + 1% glucose; 48 hours; crystal violet"}, "[12]": {"test_system": "MRSA USA300", "test": "Biofilm inhibition (at least 80%), MRSA", "format": "cell-based, methicillin resistant Staphylococcus aureus", "conditions": "n = 4, 10% TSB + 0.1% glucose, 18-24 hours, crystal violet"}, "[13]": {"test_system": "Klebsiella pneumonia KPLN649", "test": "Biofilm inhibition (at least 80%), K. pneumonia", "format": "cell-based", "conditions": "K. pneumoniae KPLN649; n = 3; BM2 minimal media; 48 hours; crystal violet"}, "[14]": {"test_system": "Acinetobacter baumannii Ab5075", "test": "Biofilm inhibition (at least 80%), A. baumannii", "format": "cell-based", "conditions": "n = 4, BM2 minimal media, 18-24 hours, crystal violet"}, "[15]": {"test_system": "P. aeruginosa PAO1", "test": "Biofilm inhibition (at least 80%), P. aeruginosa", "format": "cell-based, Pseudomonas aeruginosa", "conditions": "n = 4, BM2 minimal media, 18-24 hours, crystal violet"}, "[16]": {"test_system": "Enterobacter cloacae 218R1", "test": "Biofilm inhibition (at least 80%), E. cloacae", "format": "cell-based", "conditions": "E. cloacae 218R1; n = 3; BM2 minimal media; 18-24 hours; crystal violet"}, "[17]": {"test_system": "E. coli O157:H7", "test": "Biofilm inhibition (at least 80%), E. coli", "format": "cell-based, Escherichia coli", "conditions": "n = 3, BM2 minimal media, 18-24 hours, crystal violet"}},
  "note": "Where a SMILES comes first, the peptide text is derived from it. [ ]: non-standard residue; d: D form.",
  "data": [
    {"molecule": "CC[C@@H](C)[C@@H](NC(=O)[C@H](NC(=O)[C@@H](CCCNC(=N)N)NC(=O)[C@H](NC(=O)[C@@H](CCCNC(=N)N)NC(=O)[C@H](NC(=O)[C@H](NC(=O)[C@@H](CCCNC(=N)N)NC(=O)[C@@H](Cc1c[nH]c2ccccc12)NC(=O)[C@@H](CCC(N)=O)NC(=O)[C@H](N)C(C)C)C(C)C)[C@H](C)CC)C(C)C)C(C)C)C(=O)N[C@H](CCCNC(=N)N)C(N)=O", "note": "[AB108-D, vqwrvirvrvir-NH2] (H-[dV][dQ][dW][dR][dV][dI][dR][dV][dR][dV][dI][dR]-NH2)", "values": [
      {"measurement": "Biofilm inhibitory activity compared to DJK5", "setting": "[1]; MRSA, three concentrations (FIG. 1)", "result": "only slightly lower than the DJK5 sample"}
    ]},
    {"molecule": "CC[C@@H](C)[C@@H](NC(=O)[C@@H](C)NC(=O)[C@@H](CCCNC(=N)N)NC(=O)[C@@H](Cc1c[nH]c2ccccc12)NC(=O)[C@@H](CCC(N)=O)NC(=O)[C@H](NC(=O)[C@@H](CCCNC(=N)N)NC(=O)[C@H](NC(=O)[C@H](NC(=O)[C@@H](CCCNC(=N)N)NC(=O)[C@H](NC(=O)[C@H](N)CCCCN)C(C)C)C(C)C)[C@H](C)CC)C(C)C)C(N)=O", "note": "[AB117-D, kvrvirvqwrai] (H-[dK][dV][dR][dV][dI][dR][dV][dQ][dW][dR][dA][dI]-NH2)", "values": [
      {"measurement": "Activity against PAO1 biofilms compared to AB103-D", "setting": "[2]", "result": "activity superior to that of AB103-D"},
      {"measurement": "minimum inhibitory concentration of peptide that inhibited at least 90% of biofilm growth (MBIC90)", "setting": "[3]", "result": 0.5, "unit": "µM"},
      {"measurement": "Peptide aggregation", "setting": "[4]; 50 μg/ml", "result": "slightly"},
      {"measurement": "Clinical score", "setting": "[5]", "result": "< 2"},
      {"measurement": "Better activity vs. MRSA cf. AB103-D", "setting": "[1]; MRSA biofilms", "result": "~2", "unit": "fold"},
      {"measurement": "minimum inhibitory concentration of peptide that inhibited at least 90% of biofilm growth (MBIC90)", "setting": "[6]", "result": 8, "unit": "µM"}
    ]},
    {"molecule": "CC[C@@H](C)[C@@H](NC(=O)[C@@H](C)NC(=O)[C@@H](CCCNC(=N)N)NC(=O)[C@@H](Cc1c[nH]c2ccccc12)NC(=O)[C@@H](CCC(N)=O)NC(=O)[C@H](N)C(C)C)C(=O)N[C@@H](C(=O)N[C@@H](C(=O)N[C@H](CCCNC(=N)N)C(=O)N[C@@H](C(=O)N[C@@H](C(=O)N[C@H](CCCNC(=N)N)C(N)=O)[C@H](C)CC)C(C)C)C(C)C)[C@H](C)CC", "note": "[AB106-D, vqwraiivrvir-NH2] (H-[dV][dQ][dW][dR][dA][dI][dI][dV][dR][dV][dI][dR]-NH2)", "values": [
      {"measurement": "Hemolysis", "setting": "[7]", "result": "only marginally toxic at the highest peptide concentration evaluated"},
      {"measurement": "Peptide aggregation", "setting": "[4]; 200 μg/ml or highest concentration", "result": "marginal peptide aggregation"},
      {"measurement": "Killing of oral plaque biofilms, long-term exposure", "setting": "[8]", "result": "activity comparable to peptide DJK-5"},
      {"measurement": "Killing of oral plaque biofilms, brief exposure", "setting": "[9]", "result": "comparable to or better than peptide DJK-5"},
      {"measurement": "Cytotoxicity (LDH)", "setting": "[10]", "result": "only marginally toxic at the highest peptide concentration evaluated"}
    ]},
    {"molecule": "CN[C@H](CC(C)C)C(=O)N[C@H]1C(=O)N[C@@H](CC(N)=O)C(=O)N[C@H]2C(=O)N[C@H]3C(=O)N[C@H](C(=O)N[C@H](C(=O)O)c4cc(O)cc(O)c4-c4cc3ccc4O)[C@H](O)c3ccc(c(Cl)c3)Oc3cc2cc(c3O[C@@H]2O[C@H](CO)[C@@H](O)[C@H](O)[C@H]2O[C@H]2C[C@](C)(N)[C@H](O)[C@H](C)O2)Oc2ccc(cc2Cl)[C@H]1O", "note": "[VAN]", "values": [
      {"measurement": "Peptide/Antibiotic Concentration where at least 80% of biofilm growth was inhibited", "setting": "[11]", "result": ">256", "unit": "µg/mL"},
      {"measurement": "Peptide/Antibiotic Concentration where at least 80% of biofilm growth was inhibited", "setting": "[12]", "result": 0.25, "unit": "µg/mL"},
      {"measurement": "Peptide/Antibiotic Concentration where at least 80% of biofilm growth was inhibited", "setting": "[13]", "result": 128, "unit": "µg/mL"},
      {"measurement": "Peptide/Antibiotic Concentration where at least 80% of biofilm growth was inhibited", "setting": "[14]", "result": 8, "unit": "µg/mL"},
      {"measurement": "Peptide/Antibiotic Concentration where at least 80% of biofilm growth was inhibited", "setting": "[15]", "result": ">256", "unit": "µg/mL"},
      {"measurement": "Peptide/Antibiotic Concentration where at least 80% of biofilm growth was inhibited", "setting": "[16]", "result": 64, "unit": "µg/mL"},
      {"measurement": "Peptide/Antibiotic Concentration where at least 80% of biofilm growth was inhibited", "setting": "[17]", "result": 16, "unit": "µg/mL"}
    ]}
  ]
}
